The supplement of paper PMC10307832

Tests used:
Test in all cases: relative viability (nuclei count vs DMSO), 5 days (fraction); higher = more cells survive
Ponatinib + Trametinib = compound: Cc1ccc(C(=O)Nc2ccc(CN3CCN(C)CC3)c(C(F)(F)F)c2)cc1C#Cc1cnc2cccnn12 [Ponatinib] + CC(=O)Nc1cccc(-n2c(=O)n(C3CC3)c(=O)c3c(Nc4ccc(I)cc4F)n(C)c(=O)c(C)c32)c1 [Trametinib] (partner 0.02 µM)
Procedure, shortened: (§1)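 Relative viability divides the nuclei count in treated wells by that in vehicle wells. Lung cancer cell lines were seeded in 1536-well plates, dosed by pin tool the next day, and fixed and stained after 5 days in one step with final 0.05% Triton X-100, 1% formaldehyde and 1 ug/ml Hoechst. Dosing was a single drug or a fixed anchor-drug dose plus five library-drug doses (not always all listed) in √10 steps, and values are medians of duplicate plates imaged at 4×.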

Pazopanib + Vorinostat = compound: Cc1ccc(Nc2nccc(N(C)c3ccc4c(C)n(C)nc4c3)n2)cc1S(N)(=O)=O [Pazopanib] + O=C(CCCCCCC(=O)Nc1ccccc1)NO [Vorinostat] (partner 1 µM)
Procedure, shortened: as §1

Ponatinib + Phenformin = compound: Cc1ccc(C(=O)Nc2ccc(CN3CCN(C)CC3)c(C(F)(F)F)c2)cc1C#Cc1cnc2cccnn12 [Ponatinib] + N=C(N)NC(=N)NCCc1ccccc1 [Phenformin] (partner 250 µM)
Procedure, shortened: as §1

Pazopanib + Bortezomib = compound: Cc1ccc(Nc2nccc(N(C)c3ccc4c(C)n(C)nc4c3)n2)cc1S(N)(=O)=O [Pazopanib] + CC(C)C[C@H](NC(=O)[C@H](Cc1ccccc1)NC(=O)c1cnccn1)B(O)O [Bortezomib] (partner 0.002 µM)
Procedure, shortened: as §1

Cell Line | relative viability (Ponatinib + Trametinib; first compound 0.002 µM) | relative viability (Ponatinib + Trametinib; first compound 0.006325 µM) | relative viability (Ponatinib + Trametinib; first compound 0.06325 µM) | relative viability (Ponatinib + Trametinib; first compound 0.2 µM) | relative viability (Pazopanib + Vorinostat; first compound 0.01 µM) | relative viability (Pazopanib + Vorinostat; first compound 0.03162 µM) | relative viability (Pazopanib + Vorinostat; first compound 0.1 µM) | relative viability (Pazopanib + Vorinostat; first compound 0.3162 µM) | relative viability (Pazopanib + Vorinostat; first compound 1 µM) | relative viability (Ponatinib + Phenformin; first compound 0.002 µM) | relative viability (Ponatinib + Phenformin; first compound 0.006325 µM) | relative viability (Ponatinib + Phenformin; first compound 0.06325 µM) | relative viability (Ponatinib + Phenformin; first compound 0.2 µM) | relative viability (Pazopanib + Bortezomib; first compound 0.01 µM) | relative viability (Pazopanib + Bortezomib; first compound 0.03162 µM) | relative viability (Pazopanib + Bortezomib; first compound 0.1 µM) | relative viability (Pazopanib + Bortezomib; first compound 0.3162 µM) | relative viability (Pazopanib + Bortezomib; first compound 1 µM)
NCI-H23 | 0.376 | 0.415 | 0.364 | 0.348 | 0.431 | 0.641 | 0.628 | 0.661 | 0.782 | 0.759 | 0.756 | 0.815 | 0.593 | 0.813 | 1.1 | 1.11 | 1.07 | 1.41
NCI-H322M | 0.516 | 0.555 | 0.553 | 0.531 | 0.916 | 0.989 | 0.765 | 0.948 | 0.995 | 0.746 | 0.734 | 0.799 | 0.728 | 1.09 | 1.34 | 1.35 | 1.32 | 1.21
NCI-H441 | 0.389 | 0.435 | 0.485 | 0.382 | 0.736 | 1.06 | 0.865 | 0.838 | 0.645 | 0.818 | 0.866 | 0.941 | 0.697 | 0.377 | 0.384 | 0.665 | 0.324 | 0.434
NCI-H460 | 0.192 | 0.128 | 0.268 | 0.1 | 0.719 | 0.765 | 0.749 | 0.677 | 0.723 | 0.489 | 0.501 | 0.549 | 0.573 | 1.03 | 1.23 | 1.2 | 1.14 | 1.13
NCI-H520 | 0.597 | 0.623 | 0.435 | 0.285 | 0.678 | 0.717 | 0.742 | 0.581 | 0.549 | 0.392 | 0.552 | 0.291 | 0.18 | – | 0.612 | 0.73 | 0.744 | 0.737
NCI-H596 | 0.783 | 0.812 | 0.825 | 0.642 | 0.598 | 0.634 | 0.578 | 0.691 | 0.642 | 0.621 | 0.82 | 0.7 | 0.568 | 0.872 | 1.14 | 0.962 | 1.16 | 1.02
NCI-H647 | 0.399 | 0.5 | 0.458 | 0.296 | 0.443 | 0.59 | 0.706 | 0.394 | 0.421 | 0.413 | 0.626 | 0.699 | 0.42 | 0.822 | 0.93 | 0.963 | 1.07 | 1.05
NCI-H650 | 0.929 | 0.962 | 0.949 | 0.83 | 0.381 | 0.466 | 0.398 | 0.364 | 0.485 | 0.407 | 0.426 | 0.438 | 0.419 | 0.696 | 0.861 | 0.804 | 0.935 | 0.812
NCI-H661 | 0.544 | 0.556 | 0.524 | 0.453 | 0.773 | 0.808 | 0.875 | 0.759 | 0.802 | 0.277 | 0.258 | 0.278 | 0.264 | 0.823 | 0.853 | 0.786 | 0.631 | 0.873
NCI-H727 | 0.415 | 0.388 | 0.398 | 0.37 | 1.17 | – | 1.06 | 1.15 | 1.08 | 0.537 | 0.507 | 0.605 | 0.532 | 0.791 | 0.938 | 0.98 | 0.928 | 1.11
NCI-H838 | 0.461 | 0.554 | 0.529 | 0.424 | 0.72 | 0.734 | 0.816 | 0.706 | 0.794 | 0.567 | 0.715 | 0.527 | 0.442 | 0.898 | 0.883 | 0.927 | 0.87 | 1.2
NCI-H1355 | 0.378 | 0.429 | 0.464 | 0.47 | 0.488 | 0.632 | 0.696 | 0.643 | 0.651 | 0.44 | 0.467 | 0.491 | 0.452 | – | 1.17 | 1.21 | 1.21 | 1.35
NCI-H1437 | 0.413 | 0.496 | 0.741 | 0.613 | 0.833 | 0.778 | 0.82 | 0.762 | 0.75 | 0.293 | 0.334 | 0.322 | 0.302 | 0.617 | 0.537 | 0.428 | 0.518 | 0.583
NCI-H1650 | 0.583 | 0.543 | 0.801 | 0.474 | 0.654 | 0.615 | 0.605 | 0.59 | 0.704 | 0.454 | 0.521 | 0.389 | 0.37 | 0.204 | 0.212 | 0.235 | 0.191 | 0.21
NCI-H1651 | 0.825 | 0.827 | 0.918 | 0.809 | 0.536 | 0.588 | 0.621 | 0.534 | 0.637 | 0.301 | 0.373 | 0.299 | 0.265 | 0.753 | 0.954 | 0.965 | 0.97 | 0.916
NCI-H1666 | 0.83 | 0.786 | 0.827 | 0.777 | 1.15 | 1.09 | 0.993 | 1.06 | 0.909 | 0.564 | 0.538 | 0.564 | 0.585 | 0.707 | 0.829 | 0.77 | 1.01 | 1.35
NCI-H1734 | 0.63 | 0.658 | 0.527 | 0.505 | 0.66 | 0.864 | 0.882 | 0.942 | 0.875 | 0.395 | 0.393 | 0.347 | 0.303 | 0.846 | 0.897 | 1.01 | 0.996 | 0.935
